Measurements: patent US8058309B2, “Protein kinase modulators and therapeutic uses thereof” (Novotyr Therapeutics Ltd., priority 2006, dated 2011)
Like-named read-outs stand apart in the source and are kept apart here.

Assays:
[1] = molecular target: T1, IGF1R (Homo sapiens, UniProt P08069); assay: IGF1R cellular free kinase assay (pGT substrate phosphorylation); format: biochemical; settings: for Competition with ATP (kinetic studies): elevation of ATP concentration
T1 construct: made in house
Procedure: The general protein-tyrosine kinase substrate, poly(Glu,Tyr) 4:1 (pGT), was coated onto a 96-well Maxisorp plates (Nunc) by adding 125 μl of 0.1 mg/ml pGT in PBS to each well. Plates were sealed and incubated for 16 hours at 37° C., washed once with TBST (10 mM Tris-HCl, pH 7.5, 50 mM NaCl, and 0.1% Triton X-100) and once with DDW, dried for 2-3 hours, and stored at 4° C. […] The plate was then washed with TBS with 0.2% Tween 20 (TBST) and blocked with 0.5% BSA in TBST. Mouse monoclonal anti-phosphotyrosine antibody, conjugated to Horse radish peroxidase (PT-66, 1:50000) was added to the plate. Following incubation for 45 min at room temperature, the plate was washed repeatedly with TBST. Detection was carried out with a color reagent, 2,2′-azido-bis-3-ethylbenzithiazoline-6-sulfonic acid, in citrate-phosphate buffer, pH 4.0, with 0.004% H2O2 for 10 min and monitored at 405 nm, all at room temperature. IC50 values of inhibitors were calculated using the REGRESSION program. The assay was optimized with respect to the amount of IGF-1R (partially purified from cells overexpressing IGF1R), reaction time, and ATP concentration. The signal was linear for 30 min in the range of IGF1R protein concentrations up to 35 ng/well.

[2] = test system: DU145; assay: Proliferation assay DU145; format: cell-based; settings: Homo sapiens, DU-145, Prostate, 72 hours
Procedure: (§1) Various cancer cell lines (listed in table 1) were plated at a density of 1000-5000 cells/well in 96-well plates in 90111 growth medium containing 10% FCS, 100 units/ml penicillin and 100 μg/ml streptomycin. Inhibitors were added a day later in 10 μl of 1% DMSO in DDW to obtain final concentrations of 0, 0.1, 0.3, 1, 3, and 10 μM. The final concentration of DMSO (0.1% DMSO) was kept constant in all samples. Medium with inhibitors was refreshed a day and two days later. Following exposure of the cells to the inhibitors for 72 hours at 37° C., the cells were fixed in 0.5% gluteraldehyde in medium for 10 min, washed three times with DDW, once with 0.1M sodium borate buffer pH 8.5 and stained with 1% methylene blue dissolved in 0.1M borate buffer solution for 60 min. Excess dye was washed out and cell-bound dye was eluted with 200 μl/well of 0.1 M HCl. The optical density value was read at 620 nm in ELISA plate reader. The data was analyzed in Microsoft Excel, using the vehicle control as 100% proliferation. The assays were performed in triplicates. The values in table 1 represent IC50 values derived from the dose-dependent growth curves obtained.
(§2) Compounds 6, 7, 8, and 9 were tested for their inhibitory potential in cell proliferation assay. In this assay cells were exposed to increasing concentrations of the molecules (at 0.1% DMSO in all wells) a day after seeding. Medium and inhibitors were refreshed every day, and following three days of treatment, cells were fixed and stained with methylene-Blue. IC50 values were determined from the curves of the optical density against compound concentration. The assay was performed in triplicates.

[3] = test system: Colo-205; assay: Proliferation assay Colo-205; format: cell-based; settings: Homo sapiens, Colon, 72 hours
Procedure: as §1, §2

[4] = test system: NCl-H526; assay: Proliferation assay NCl-H526; format: cell-based; settings: Lung, 72 hours
Procedure: as §1, §2

[5] = test system: U138MG; assay: Proliferation assay U138MG; format: cell-based; settings: Homo sapiens, U138-MG, Glioma, 72 hours
Procedure: as §1, §2

[6] = test system: MO59K; assay: Proliferation assay MO59K; format: cell-based; settings: Glioma, 72 hours
Procedure: as §1, §2

[7] = test system: B16; assay: Proliferation assay B16; format: cell-based; settings: Mus musculus, Melanoma, 72 hours
Procedure: as §1, §2

[8] = test system: YUMAC; assay: Proliferation assay YUMAC; format: cell-based; settings: Homo sapiens
Procedure: as §1, §2

[9] = test system: BAF3 Bcr-Abl; assay: Proliferation assay BAF3 Bcr-Abl; format: cell-based; settings: Mus musculus, Pro B, 72 hours
Procedure: as §1, §2

[10] = test system: A2780 tumors; assay: Ovarian cancer A2780 xenograft tumor growth; format: in vivo, nude mice; settings: for Inhibition of ovarian tumor growth, comparative study: A2780, IP once a day, 20 mg/kg (FIG. 13); for Growth inhibition of ovarian cancer A2780 tumors / Growth inhibition of ovarian A2780 tumors: IP, 1/day; for Growth inhibition of ovarian cancer A2780 tumors: 20 mg/kg (FIG. 12); for Growth inhibition of ovarian A2780 tumors: 50 mg/kg
Procedure: Human hormone-refractory prostate cancer PC3 cells (ATCC, 1.5×10^6 cells per mouse) were injected subcutaneously into the right leg of Nude:Hsd mice (purchased from Harlan). Ten days later, when palpable tumors had developed, mice were divided into 3 groups with similar average tumor size. […] The mice treated with compound 7 group were daily injected with compound 7 dissolved in the below described vehicle, and the vehicle-treated group (veh) was daily injected by the vehicle alone. Vehicle included 4.4% DMSO, 1.2% Ethanol and 50% PEG400 in DDW; Groups were composed of 3 mice per group. Dose administered IP was 50 mg/Kg (4 ml/Kg) once a day for one month. The length (l) and the width (w) of the tumors were measured every day and the volumes of the tumors were calculated as follows: v=1w^2/2. Graphs present average volumes of the tumors versus time in days. The procedure was followed for the other described in-vivo studies with the following modifications:
Human ovary cancer A2780 cells (from ECACC, 2×10^6 cells per mouse) were injected subcutaneously into the right leg of female Nude:Hsd mice (purchased from Harlan). Inhibitors were injected IP daily at doses of 20 mg/kg (Exp. 2&3) or 50 mg/kg (Exp. 4) dissolved in 4.4% DMSO, 0.12% EtOH, 50% PEG-400 in DDW at volume of 4 ml/kg. The Veh group received 4.4% DMSO, 0.12% EtOH, 50% PEG-400 in DDW at volume of 4 ml/kg.

[11] = test system: IRS1; assay: IRS1 Ser-phosphorylation and IRS1 levels in A2780 cells; format: cell-based, human; settings: ovarian cancer A2780 cells
Procedure: In addition, lysates were prepared from cells exposed to inhibitors at various concentrations for 24 hours in the presence or the absence of FCS without stimulation. Lysate preparation and western blot were the same as described above. Apoptosis was detected by immunoblotting with rabbit anti-PARP antibodies.

[12] = [ATP] 2.5 μM, read-out: IC50, competition with ATP in cellular free kinase assay of IGF1R
[13] = [ATP] 5 μM, read-out: IC50, competition with ATP in cellular free kinase assay of IGF1R
[14] = [ATP] 10 μM, read-out: IC50, competition with ATP in cellular free kinase assay of IGF1R
[15] = [ATP] 20 μM, read-out: IC50, competition with ATP in cellular free kinase assay of IGF1R
[16] = [ATP] 50 μM, read-out: IC50, competition with ATP in cellular free kinase assay of IGF1R
[17] = partially purified IGF1R, 20 μM ATP, read-out: IC50 values of IGF1R activity in cellular free kinase assay
[18] = Melanoma, YUMAC, 72 hours, read-out: Proliferation assay IC50
[19] = Table 4, 72 hours incubation, read-out: Inhibition of human metastatic melanoma cells, YUMAC IC50

T1 sequence (P08069 31-1367, species assumed): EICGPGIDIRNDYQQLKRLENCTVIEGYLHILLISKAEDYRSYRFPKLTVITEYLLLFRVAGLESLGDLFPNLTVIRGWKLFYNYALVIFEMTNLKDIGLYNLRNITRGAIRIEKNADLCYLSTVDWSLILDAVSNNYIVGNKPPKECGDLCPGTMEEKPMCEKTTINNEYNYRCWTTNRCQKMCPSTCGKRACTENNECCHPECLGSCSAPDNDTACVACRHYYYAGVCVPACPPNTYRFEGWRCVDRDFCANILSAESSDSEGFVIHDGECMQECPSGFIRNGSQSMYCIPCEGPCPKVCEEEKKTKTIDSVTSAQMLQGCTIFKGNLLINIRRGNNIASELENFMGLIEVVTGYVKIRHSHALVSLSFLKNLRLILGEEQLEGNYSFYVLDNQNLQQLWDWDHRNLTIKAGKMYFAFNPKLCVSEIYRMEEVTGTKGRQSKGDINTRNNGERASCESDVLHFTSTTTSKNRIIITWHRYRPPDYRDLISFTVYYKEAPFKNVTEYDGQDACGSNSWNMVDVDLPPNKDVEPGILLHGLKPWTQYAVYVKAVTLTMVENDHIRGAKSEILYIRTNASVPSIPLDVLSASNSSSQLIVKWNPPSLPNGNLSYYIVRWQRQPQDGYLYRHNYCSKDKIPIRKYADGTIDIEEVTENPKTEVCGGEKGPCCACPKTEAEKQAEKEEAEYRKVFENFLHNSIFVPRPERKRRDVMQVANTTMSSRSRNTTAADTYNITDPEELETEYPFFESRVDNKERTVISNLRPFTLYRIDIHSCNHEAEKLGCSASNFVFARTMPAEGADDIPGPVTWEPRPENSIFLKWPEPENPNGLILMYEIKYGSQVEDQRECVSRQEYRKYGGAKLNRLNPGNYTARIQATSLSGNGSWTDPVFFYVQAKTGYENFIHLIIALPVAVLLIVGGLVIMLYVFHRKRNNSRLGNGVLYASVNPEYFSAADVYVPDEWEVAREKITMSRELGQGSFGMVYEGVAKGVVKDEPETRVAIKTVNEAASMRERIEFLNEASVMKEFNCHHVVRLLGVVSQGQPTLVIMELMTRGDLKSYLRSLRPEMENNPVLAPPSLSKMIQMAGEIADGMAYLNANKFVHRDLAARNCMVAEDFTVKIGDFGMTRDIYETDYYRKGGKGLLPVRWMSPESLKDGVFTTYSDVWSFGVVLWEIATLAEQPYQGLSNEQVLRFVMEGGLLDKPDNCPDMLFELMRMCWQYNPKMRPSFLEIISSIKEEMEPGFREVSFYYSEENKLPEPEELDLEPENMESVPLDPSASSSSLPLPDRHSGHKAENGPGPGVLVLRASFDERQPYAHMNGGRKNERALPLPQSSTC

`N#C/C(=C\c1cc(O)c(O)c(Br)c1)C(=S)NCc1cc(O)c(O)c(Br)c1` [Compound 6] was tested, and the IC50 [1, 12] was 74 nM, the IC50 [1, 13] was 56 nM and the IC50 [1, 14] was 92 nM. For the same compound, the IC50 [1, 15] was 55 nM, the IC50 [1, 16] was 98 nM and the “Competition with ATP (kinetic studies)” value [1] was “do not compete with ATP”. The IC50 [1, 17] was 98 nM, the IC50 [2] was over 10000 nM and the IC50 [3] was over 10000 nM. The IC50 [4] was over 10000 nM, the IC50 [5] was 2000 nM and the IC50 [6] was 6800 nM. For the same compound, the IC50 [7] was 7900 nM, the IC50 [8, 18] was 8500 nM and the IC50 [8, 19] was 8500 nM. For the same compound, the IC50 [9] was 7700 nM and the “Inhibition of ovarian tumor growth, comparative study” value (from here on “Inhibition of ovarian tumor growth”) [10] was 33%.

For `N#C/C(=C\c1cc(O)c(O)c(Br)c1)C(=S)NCc1cc(O)c(O)c(O)c1` [Compound 7], the IC50 [1, 12] was 190 nM, the IC50 [1, 13] was 163 nM and the IC50 [1, 14] was 124 nM. The IC50 [1, 15] was 90 nM, the IC50 [1, 16] was 80 nM and the “Competition with ATP (kinetic studies)” value [1] was “do not compete with ATP”. The IC50 [1, 17] was 116 nM, the “Cellular IRS1 levels” value [11] was “a decrease in cellular IRS1 levels” and the “IRS1 Ser-phosphorylation (shift up of IRS1 band)” value [11] was “induced Ser-phosphorylation”. It also gave an IC50 [2] of 6600 nM, an IC50 [3] of 5400 nM and an IC50 [4] of over 10000 nM. For the same compound, the IC50 [5] was 800 nM, the IC50 [6] was 700 nM and the IC50 [7] was 1900 nM. For the same compound, the IC50 [8, 18] was 1200 nM, the IC50 [8, 19] was 1200 nM and the IC50 [9] was 8200 nM. The “Inhibition of ovarian tumor growth” value [10] was “approximately 90%” and the “Growth inhibition of ovarian cancer A2780 tumors” value [10] was 87%.

For `Oc1cc(CNC(=S)/C=C/c2cc(O)c(O)c(Br)c2)cc(O)c1O` [Compound 9], the IC50 [1, 17] was 78 nM, the “Cellular IRS1 levels” value [11] was “a decrease in cellular IRS1 levels” and the “IRS1 Ser-phosphorylation (shift up of IRS1 band)” value [11] was “induced Ser-phosphorylation”. For the same compound, the IC50 [2] was 1800 nM, the IC50 [3] was 1700 nM and the IC50 [4] was over 10000 nM. The IC50 [5] was 200 nM, the IC50 [6] was 1400 nM and the IC50 [7] was 1400 nM. For the same compound, the IC50 [8, 18] was 600 nM, the IC50 [8, 19] was 600 nM and the IC50 [9] was 6100 nM. For the same compound, the “Inhibition of ovarian tumor growth” value [10] was “approximately 90%”.

`N#C/C(=C\c1cc(O)c(O)c(I)c1)C(=S)NCc1cc(O)c(O)c(O)c1` [Compound 8] was tested, and the IC50 [1, 12] was 190 nM, the IC50 [1, 13] was 110 nM and the IC50 [1, 14] was 100 nM. The IC50 [1, 15] was 80 nM, the IC50 [1, 16] was 100 nM and the “Competition with ATP (kinetic studies)” value [1] was “do not compete with ATP”. For the same compound, the IC50 [1, 17] was 76 nM, the “Cellular IRS1 levels” value [11] was “a decrease in cellular IRS1 levels” and the “IRS1 Ser-phosphorylation (shift up of IRS1 band)” value [11] was “induced Ser-phosphorylation”. The IC50 [2] was 6500 nM, the IC50 [3] was 2500 nM and the IC50 [4] was over 10000 nM. For the same compound, the IC50 [5] was 800 nM, the IC50 [6] was 900 nM and the IC50 [7] was 1700 nM. It also gave an IC50 [8, 18] of 1200 nM, an IC50 [8, 19] of 1200 nM and an IC50 [9] of over 10000 nM. For the same compound, the “Inhibition of ovarian tumor growth” value [10] was “approximately 90%”, the “Growth inhibition of ovarian cancer A2780 tumors” value [10] was 87% and the “Growth inhibition of ovarian A2780 tumors” value ([10]; tumors larger than 50 mm^3 at start) was 82%. For the same compound, the “Growth inhibition of ovarian A2780 tumors” value ([10]; tumors larger than 470 mm^3 at start) was “approximately 85%”.
